Source: PubChem BioAssay (NCI)
“And” between values parts separate entries of the source, which are not always exact repeats. Identical values can stand only once.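 Five compound concentrations were applied to cells in 96-well plates for 48 hours; endpoints were derived by simple linear interpolation of the resulting dose-response curve. Abbreviation: GI50, concentration required for 50% inhibition of growth. TGI marks complete inhibition of growth.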

Key:
Test in all cases: inhibition of tumour cell growth, NCI panel, 48 h
[1] = system: CAKI-1 renal
[2] = system: HCC-2998 colon
[3] = system: HCT-15 colon
[4] = system: K-562 leukemia
[5] = system: RPMI-8226 leukemia
[6] = system: RXF 393 renal
[7] = system: SN12C renal
[8] = system: SW-620 colon
[9] = system: UACC-62 melanoma
[10] = system: HS 578T breast

CC1=Nc2ccccc2S/C1=C1/C=NC(=NC#N)N=C1C(=O)Nc1cccc(Cl)c1
TGI [1]: > 100 µM
TGI [2]: > 100 µM
TGI [3]: > 100 µM
TGI [4]: > 100 µM
TGI [5]: > 100 µM
TGI [6]: > 100 µM
TGI [7]: > 100 µM
TGI [8]: > 100 µM
TGI [9]: > 100 µM

CC(=O)[CH-]C(=O)c1ccccc1.CC(=O)[CH-]C(=O)c1ccccc1.Cl.[O-]CCc1ccccn1.[O-]CCc1ccccn1.[Ti+4]
GI50 [1]: 44.1 µM
TGI [1]: > 100 µM
GI50 [2]: 26.9 µM
TGI [2]: 83.6 µM
GI50 [3]: 46.2 µM
TGI [3]: > 100 µM
GI50 [4]: 21 µM
TGI [4]: > 100 µM
GI50 [5]: 15.8 µM
TGI [5]: 58.4 µM
GI50 [7]: 36.1 µM
TGI [7]: > 100 µM
GI50 [8]: 29.5 µM
TGI [8]: > 100 µM
GI50 [9]: 23.6 µM
TGI [9]: > 100 µM

COc1cc2c(cc1O)CCN[C@@]21CS[C@H]2c3c(OC(C)=O)c(C)c4c(c3C(COC1=O)N1C2C2NC(Cc3cc(C)c(OC)c(O)c32)[C@@H]1O)OCO4 (some centres not stated)
GI50 [1]: 0.000294 ng/mL
TGI [1]: 3.03 µM
GI50 [3]: 0.00461 ng/mL and 4.5 ng/mL
TGI [10]: 0.302 µM
GI50 [4]: 4.5 ng/mL
TGI [4]: 11.3 µM and 0.0045 µg/mL
TGI [5]: > 100 µM and 6.4e-07 µg/mL
GI50 [6]: 4.5 ng/mL
TGI [6]: < 10 nM and 1.9e-07 µg/mL and 0.0045 µg/mL
GI50 [7]: 4.5 ng/mL
TGI [7]: 4.8 ng/mL
GI50 [8]: 4.5 ng/mL
TGI [8]: 7.33 µM and 4.98 µg/mL
GI50 [9]: 4.5 ng/mL
TGI [9]: 4.5 ng/mL

O=C1CCNC/C1=C\c1ccccc1
TGI [1]: > 100 µM
TGI [2]: 42.8 µM
TGI [3]: 50.1 µM
TGI [4]: > 100 µM
TGI [5]: 83.6 µM
TGI [7]: > 100 µM
TGI [8]: 95.3 µM
TGI [9]: 34.3 µM

O=C1N(c2ccc(Cl)cc2)C(=O)C2(SC=NN2Cc2ccccc2)N1c1ccc(Cl)cc1 (configuration not stated)
TGI [2]: > 100 µM
TGI [4]: > 100 µM
TGI [5]: > 100 µM
TGI [6]: > 100 µM
TGI [7]: > 100 µM
TGI [8]: > 100 µM
TGI [9]: > 100 µM

N#C/C(=C/c1ccc([N+](=O)[O-])o1)c1ccccc1
TGI [1]: > 100 µM
TGI [2]: > 100 µM
TGI [4]: > 100 µM
TGI [5]: > 100 µM
TGI [6]: > 100 µM
TGI [7]: > 100 µM
TGI [8]: > 100 µM
TGI [9]: > 100 µM

Cc1ccc2nc(CN(CCN(Cc3nc4ccc(C)cc4[nH]3)Cc3nc4ccc(C)cc4[nH]3)Cc3nc4ccc(C)cc4[nH]3)[nH]c2c1
GI50 [1]: 1.26 µM
TGI [1]: 2.51 µM
GI50 [2]: 1.74 µM
TGI [2]: 3.18 µM
GI50 [3]: 1.62 µM
TGI [3]: 3.01 µM
GI50 [4]: 1.72 µM
TGI [4]: 3.76 µM
GI50 [5]: 1.3 µM
TGI [5]: 2.95 µM
GI50 [7]: 1.86 µM
TGI [7]: 3.26 µM
GI50 [9]: 1.72 µM
TGI [9]: 3.1 µM

CC1OC(O[C@@H]2C=C3CC[C@@H]4[C@H](CC[C@]5(C)[C@@H](c6ccc(=O)oc6)CC[C@]45O)[C@@]3(C)CC2)C(O)C(O)C1O (some centres not stated)
TGI [1]: 0.000992 µM
GI50 [2]: 0.00159 µM
TGI [2]: 0.003 µM
GI50 [10]: 0.00326 µM
TGI [10]: 0.003 µM
GI50 [6]: 0.00112 µM and 0.00894 µM
TGI [6]: 0.00199 µM
TGI [7]: 0.003 µM and 0.0189 µM
GI50 [9]: 0.00216 µM
TGI [9]: 0.003 µM

COc1cc([C@H]2OC[C@@H]3C(c4cc(OC)c5c(c4)OCO5)OC[C@H]23)cc(OC)c1OC (some centres not stated)
TGI [1]: > 100 µM
TGI [2]: > 100 µM
TGI [3]: > 100 µM
TGI [10]: > 100 µM
TGI [4]: > 100 µM
TGI [5]: > 100 µM
TGI [8]: > 100 µM
TGI [9]: > 100 µM

COC1=CC(=O)C2(C=C1OC)OC[C@H]1Oc3c(ccc4c3C=CC(C)(C)O4)C(=O)[C@H]12 (some centres not stated)
TGI [2]: > 100 µM
TGI [4]: > 100 µM
TGI [5]: 49.3 µM
TGI [6]: > 100 µM
TGI [8]: > 100 µM
TGI [9]: > 100 µM

COc1cc(O)c(C(=O)C2Cc3ccccc32)c(OC)c1 (configuration not stated)
TGI [1]: 72.4 µM
TGI [2]: > 100 µM
TGI [3]: > 100 µM
TGI [4]: > 100 µM
TGI [5]: 47.4 µM
TGI [6]: 69.4 µM
TGI [7]: > 100 µM
TGI [8]: > 100 µM
TGI [9]: > 100 µM

COC(=O)CC(=O)OC1C[C@@H]2CCC3C(C)(C)CCC[C@]3(C)C23CC[C@@]1(C)C3 (some centres not stated)
TGI [1]: 30.5 µM
TGI [2]: 35 µM
TGI [3]: 36.1 µM
TGI [4]: > 100 µM
TGI [5]: > 100 µM
TGI [6]: 37.2 µM
TGI [7]: 31.3 µM
TGI [8]: 32.1 µM
TGI [9]: 30.7 µM

CC(=O)OC1COC(N2C(=O)C(=O)c3ccccc32)C(OC(C)=O)C1OC(C)=O (configuration not stated)
TGI [1]: > 100 µM
TGI [2]: > 100 µM
TGI [3]: > 100 µM
TGI [4]: > 100 µM
TGI [5]: > 100 µM
TGI [6]: > 100 µM
TGI [7]: > 100 µM
TGI [8]: > 100 µM
TGI [9]: > 100 µM

O=[N+]([O-])c1ccc(N=P(c2ccccc2)(c2ccccc2)c2ccccc2)n2nnnc12
TGI [1]: > 100 µM
TGI [3]: > 100 µM
TGI [4]: > 100 µM
TGI [5]: > 100 µM
TGI [6]: > 100 µM
TGI [7]: > 100 µM
TGI [8]: > 100 µM
TGI [9]: > 100 µM

COc1ccc2c(Cl)cc(NC(=S)Nc3ccccc3)nc2c1
TGI [1]: > 100 µM
TGI [3]: > 100 µM
TGI [10]: 37.3 µM
TGI [4]: 60.2 µM
TGI [5]: 59.9 µM
TGI [6]: 55.6 µM
TGI [7]: > 100 µM
TGI [8]: 69.1 µM
TGI [9]: 46.4 µM

O=C1c2c(c3c4ccccc4n(CC4CO4)c3c3[nH]c4ccccc4c23)C(=O)N1Cc1ccccc1 (configuration not stated)
TGI [1]: > 100 µM
TGI [2]: > 100 µM
TGI [3]: > 100 µM
TGI [4]: > 100 µM
TGI [5]: > 100 µM
TGI [6]: > 100 µM
TGI [7]: > 100 µM
TGI [8]: > 100 µM
TGI [9]: > 100 µM

CCn1c(=O)nc2n(-c3ccc(SC)cc3)c3ccccc3nc-2c1=O
TGI [1]: > 100 µM
TGI [2]: > 100 µM
TGI [3]: > 100 µM
TGI [4]: > 100 µM
TGI [5]: > 100 µM
TGI [7]: > 100 µM
TGI [8]: > 100 µM
TGI [9]: > 100 µM

CO[C@H]1C[C@H](O[C@H]2CC[C@@]3(C)[C@H](CC[C@@H]4[C@@H]3CC[C@]3(C)[C@@H](C5=CC(=O)OC5)CC[C@]43O)C2)O[C@H](C)[C@H]1O
TGI [1]: 0.0284 µM
TGI [2]: 0.118 µM
TGI [3]: 0.0164 µM
TGI [5]: 0.0427 µM
TGI [6]: 0.0105 µM
TGI [7]: 0.0111 µM
TGI [8]: 0.113 µM
TGI [9]: 0.031 µM

CC1=C(\C=C/C(C)=C/C=C/C(C)=C/C=C/C=C(C)\C=C\C=C(C)/C=C/C2=C(C)CCCC2(C)C)C(C)(C)CCC1
TGI [2]: > 100 µM
TGI [3]: > 100 µM
TGI [10]: > 100 µM
TGI [4]: > 100 µM
TGI [6]: > 100 µM
TGI [7]: > 100 µM
TGI [8]: > 100 µM
TGI [9]: > 100 µM

CCOC(=O)C1=C(C)N(NC(=O)Nc2ccccc2)C2(N)N(NC(=O)Nc3ccccc3)C(C)=C(C(=O)OCC)C12C#N (configuration not stated)
TGI [1]: 40.1 µM
TGI [2]: 33.9 µM
TGI [3]: 37.1 µM
TGI [4]: 48.2 µM
TGI [5]: 50.5 µM
TGI [6]: 27.7 µM
TGI [7]: 33 µM
TGI [8]: 36.2 µM
TGI [9]: 32.2 µM
